Assay in all cases: relative viability (nuclei count vs DMSO), 5 days (fraction); higher = more cells survive
Compound in the test “Shikonin + Bortezomib”: CC(C)=CC[C@@H](O)C1=CC(=O)c2c(O)ccc(O)c2C1=O [Shikonin] + CC(C)C[C@H](NC(=O)[C@H](Cc1ccccc1)NC(=O)c1cnccn1)B(O)O [Bortezomib] (partner 0.002 µM)
In outline: (§1)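 Cells from lung cancer lines were seeded into 1536-well plates and, one day later, dosed by pin tool. Treatments were either a single drug or a fixed dose of an anchor drug with five library-drug doses (not always all listed) in √10 steps. After 5 days, nuclei were stained in a one-step fixation (final 0.05% Triton X-100, 1% formaldehyde, 1 ug/ml Hoechst) and counted on 4× images, and relative viability is the treated-to-vehicle nuclei ratio, as the median of duplicate plates.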

Compound in the test “Shikonin + Crizotinib”: CC(C)=CC[C@@H](O)C1=CC(=O)c2c(O)ccc(O)c2C1=O [Shikonin] + C[C@@H](Oc1cc(-c2cnn(C3CCNCC3)c2)cnc1N)c1c(Cl)ccc(F)c1Cl [Crizotinib] (partner 1 µM)
In outline:
as §1

Compound in test [1]: CC(C)N(CCCNC(=O)Nc1ccc(C(C)(C)C)cc1)C[C@H]1O[C@@H](n2ccc3c(N)ncnc32)[C@H](O)[C@@H]1O + NC(=O)Nc1cc(-c2cccc(F)c2)sc1C(=O)N[C@H]1CCCNC1 [AZD7762] (partner 0.2 µM)
In outline:
as §1

Compound in test [2]: CC(C)N(CCCNC(=O)Nc1ccc(C(C)(C)C)cc1)C[C@H]1O[C@@H](n2ccc3c(N)ncnc32)[C@H](O)[C@@H]1O + CC(C)C[C@H](NC(=O)[C@H](Cc1ccccc1)NC(=O)c1cnccn1)B(O)O [Bortezomib] (partner 0.002 µM)
A digest of the protocol: as §1

For NCI-H2347, the relative viability with Shikonin + Bortezomib (first compound 0.01 µM) stood at 1.09; in the test with Shikonin + Bortezomib (first compound 0.1 µM), 1.11; with Shikonin + Bortezomib (first compound 0.3162 µM), 0.848; with Shikonin + Bortezomib (first compound 1 µM), 1.23; with Shikonin + Crizotinib (first compound 0.01 µM) it was 0.69; with Shikonin + Crizotinib (first compound 0.1 µM), 0.0168. The relative viability in the test with Shikonin + Crizotinib (first compound 0.3162 µM) came out at 0.795; with Shikonin + Crizotinib (first compound 1 µM), 0.715; in test [1] (first compound 0.08 µM), 0.795; in test [1] (first compound 0.253 µM), 0.815; in test [1] (first compound 0.8 µM), 0.605; in test [1] (first compound 2.53 µM), 0.803. Moreover, the relative viability in test [1] (first compound 8 µM) was found to be 0.746; in test [2] (first compound 0.08 µM) it was 1.14; in test [2] (first compound 0.253 µM), 0.871; in test [2] (first compound 0.8 µM), 0.534; in test [2] (first compound 2.53 µM) it was 0.924; in test [2] (first compound 8 µM), 1.

Regarding LCLC-97TM1, the relative viability in the test with Shikonin + Bortezomib (first compound 0.01 µM) was determined as 0.331; with Shikonin + Bortezomib (first compound 0.1 µM), 0.721; with Shikonin + Bortezomib (first compound 0.3162 µM), 0.814; in the test with Shikonin + Bortezomib (first compound 1 µM), 0.631; with Shikonin + Crizotinib (first compound 0.01 µM), 0.573; with Shikonin + Crizotinib (first compound 0.1 µM), 0.46. Besides, the relative viability with Shikonin + Crizotinib (first compound 0.3162 µM) came out at 0.3; in the test with Shikonin + Crizotinib (first compound 1 µM) it was 0.247; in test [1] (first compound 0.08 µM), 0.233; in test [1] (first compound 0.253 µM) it was 0.266; in test [1] (first compound 0.8 µM), 0.354; in test [1] (first compound 2.53 µM), 0.235. Further, the relative viability is 0.147 in test [1] (first compound 8 µM); 0.681 in test [2] (first compound 0.08 µM); 0.686 in test [2] (first compound 0.253 µM); 0.493 in test [2] (first compound 0.8 µM); 0.422 in test [2] (first compound 2.53 µM); 0.631 in test [2] (first compound 8 µM).

Turning to EPLC-272H, the relative viability with Shikonin + Bortezomib (first compound 0.01 µM) came out at 0.76; with Shikonin + Bortezomib (first compound 0.1 µM) it was 0.923; in the test with Shikonin + Bortezomib (first compound 0.3162 µM) it was 0.957; in the test with Shikonin + Bortezomib (first compound 1 µM), 0.923; with Shikonin + Crizotinib (first compound 0.01 µM), 1.03; with Shikonin + Crizotinib (first compound 0.1 µM), 0.901. The relative viability in the test with Shikonin + Crizotinib (first compound 0.3162 µM) turned out to be 0.953; in the test with Shikonin + Crizotinib (first compound 1 µM), 0.865; in test [1] (first compound 0.08 µM) it was 0.262; in test [1] (first compound 0.253 µM), 0.238; in test [1] (first compound 0.8 µM) it was 0.21; in test [1] (first compound 2.53 µM), 0.259. Also, the relative viability in test [1] (first compound 8 µM) is 0.35; in test [2] (first compound 0.08 µM), 0.871; in test [2] (first compound 0.253 µM), 0.819; in test [2] (first compound 0.8 µM) it was 0.397; in test [2] (first compound 2.53 µM), 0.923; in test [2] (first compound 8 µM), 0.942.

For the cell line NCI-H1915, the relative viability in the test with Shikonin + Bortezomib (first compound 0.01 µM) was found to be 1.01; with Shikonin + Bortezomib (first compound 0.1 µM), 1.15; in the test with Shikonin + Bortezomib (first compound 0.3162 µM), 1.06; in the test with Shikonin + Bortezomib (first compound 1 µM), 1.06; with Shikonin + Crizotinib (first compound 0.01 µM), 0.904; with Shikonin + Crizotinib (first compound 0.1 µM), 1.1. The relative viability stood at 0.915 with Shikonin + Crizotinib (first compound 0.3162 µM); 1.07 with Shikonin + Crizotinib (first compound 1 µM); 0.674 in test [1] (first compound 0.08 µM); 0.726 in test [1] (first compound 0.253 µM); 0.607 in test [1] (first compound 0.8 µM); 0.668 in test [1] (first compound 2.53 µM). In addition, the relative viability was determined as 0.56 in test [1] (first compound 8 µM); 0.911 in test [2] (first compound 0.08 µM); 0.972 in test [2] (first compound 0.253 µM); 0.622 in test [2] (first compound 0.8 µM); 0.894 in test [2] (first compound 2.53 µM); 0.935 in test [2] (first compound 8 µM).

Take NCI-H3122: the relative viability with Shikonin + Bortezomib (first compound 0.01 µM) is 1.06; with Shikonin + Bortezomib (first compound 0.1 µM), 1.13; with Shikonin + Bortezomib (first compound 0.3162 µM), 1.01; with Shikonin + Bortezomib (first compound 1 µM) it was 1.06; with Shikonin + Crizotinib (first compound 0.01 µM), 0.288; in the test with Shikonin + Crizotinib (first compound 0.1 µM), 0.271. Moreover, the relative viability with Shikonin + Crizotinib (first compound 0.3162 µM) came out at 0.278; with Shikonin + Crizotinib (first compound 1 µM), 0.248; in test [1] (first compound 0.08 µM), 0.967; in test [1] (first compound 0.253 µM), 1.03; in test [1] (first compound 0.8 µM), 1.02; in test [1] (first compound 2.53 µM) it was 0.907. Moreover, the relative viability turned out to be 0.959 in test [1] (first compound 8 µM); 1.02 in test [2] (first compound 0.08 µM); 0.994 in test [2] (first compound 0.253 µM); 1.04 in test [2] (first compound 0.8 µM); 1.03 in test [2] (first compound 2.53 µM); 0.978 in test [2] (first compound 8 µM).

As to NCI-H441, the relative viability with Shikonin + Bortezomib (first compound 0.01 µM) is 0.581; with Shikonin + Bortezomib (first compound 0.1 µM) it was 0.666; in the test with Shikonin + Bortezomib (first compound 0.3162 µM), 0.549; in the test with Shikonin + Bortezomib (first compound 1 µM) it was 0.603; with Shikonin + Crizotinib (first compound 0.01 µM), 0.921; with Shikonin + Crizotinib (first compound 0.1 µM), 0.782. For the same cell line, the relative viability with Shikonin + Crizotinib (first compound 0.3162 µM) stood at 0.887; with Shikonin + Crizotinib (first compound 1 µM), 0.771; in test [1] (first compound 0.08 µM), 1.04; in test [1] (first compound 0.253 µM), 1.13; in test [1] (first compound 2.53 µM), 1.07; in test [1] (first compound 8 µM) it was 1.33. For the same cell line, the relative viability in test [2] (first compound 0.253 µM) was determined as 0.488; in test [2] (first compound 0.8 µM), 0.144; in test [2] (first compound 2.53 µM), 0.875; in test [2] (first compound 8 µM) it was 0.819.

For the cell line PC-3 [JPC-3], the relative viability is 0.824 with Shikonin + Bortezomib (first compound 0.01 µM); 0.894 with Shikonin + Bortezomib (first compound 0.1 µM); 0.837 in the test with Shikonin + Bortezomib (first compound 0.3162 µM); 0.868 with Shikonin + Bortezomib (first compound 1 µM); 1.03 with Shikonin + Crizotinib (first compound 0.01 µM); 1.14 with Shikonin + Crizotinib (first compound 0.1 µM). Besides, the relative viability in the test with Shikonin + Crizotinib (first compound 0.3162 µM) is 1.03; with Shikonin + Crizotinib (first compound 1 µM), 0.986; in test [1] (first compound 0.08 µM), 0.759; in test [1] (first compound 0.253 µM), 0.81; in test [1] (first compound 2.53 µM), 0.794; in test [1] (first compound 8 µM), 0.872. For the same cell line, the relative viability in test [2] (first compound 0.08 µM) came out at 0.79; in test [2] (first compound 0.253 µM), 0.927; in test [2] (first compound 0.8 µM), 0.317; in test [2] (first compound 2.53 µM) it was 0.749; in test [2] (first compound 8 µM) it was 0.815.

Take CAL-12T: the relative viability in the test with Shikonin + Bortezomib (first compound 0.01 µM) was found to be 0.898; in the test with Shikonin + Bortezomib (first compound 0.1 µM), 1.05; in the test with Shikonin + Bortezomib (first compound 0.3162 µM), 1.01; with Shikonin + Bortezomib (first compound 1 µM) it was 1.17; with Shikonin + Crizotinib (first compound 0.01 µM), 0.941; in the test with Shikonin + Crizotinib (first compound 0.1 µM) it was 0.659. The relative viability with Shikonin + Crizotinib (first compound 0.3162 µM) was determined as 0.627; in the test with Shikonin + Crizotinib (first compound 1 µM) it was 0.589; in test [1] (first compound 0.08 µM), 0.572; in test [1] (first compound 0.253 µM) it was 0.617; in test [1] (first compound 0.8 µM), 0.665; in test [1] (first compound 2.53 µM), 0.668. Further, the relative viability in test [1] (first compound 8 µM) was found to be 0.565; in test [2] (first compound 0.08 µM), 1.04; in test [2] (first compound 0.253 µM) it was 0.739; in test [2] (first compound 0.8 µM), 0.907; in test [2] (first compound 2.53 µM), 0.847; in test [2] (first compound 8 µM), 0.784.
